Values quoted from earlier work, collected in patent US20090099557A1, “Methods and compositions for optimizing the outcomes of refractive laser surgery of the cornea” (priority 2006, published 2009).

Key:
[1] = test system: epithelial cells; details: ethanol-assisted epithelial separation; Invest Opthalmol Vis Sci 43: 2593-2602 (2002); J Cataract Refract Surg 28: 1841-46 (2002)
[2] = test system: epithelial cells; details: 18% ethanol for 25 seconds; single cell layers of epithelial cells, in vitro

CCO [ethanol]
toxicity to epithelial cells [1]: toxic to epithelial cells in both a dose- and time-dependent manner | toxic effect of the alcohol on epithelial cells [2]: toxic effect
